Patent publication US11767319B2, “Crystalline forms of a selective c-kit kinase inhibitor” (Third Harmonic Bio, Inc., priority 2020, dated 2023)

Assays:
Assay type in all cases: physicochemical
[1] = Competitive slurry experiments among anhydrates (IPA/IPAc); conditions: at RT and 50° C., IPA/IPAc slurries
Procedure: Competitive slurry experiments were performed in IPA/IPAc at RT/50° C. between anhydrates Form A of compound 1 and Form D of compound 1. Form A of compound 1 was added into each solvent to form a slurry at RT or 50° C. and was stirred for 2 h. The slurries were then filtered to obtain saturated solution. Around 10 mg each of Form A of compound 1 and Form D of compound 1 were added into each solution to form a mixed slurry at RT or 50° C. […] The formation of Form H^A of compound 1 is postulated to be caused by residual water in the solvents or due to ambient humidity (˜35% humidity during slurry experiments).

[2] = Variable temperature XRPD of Form D; conditions: heating to 150° C. or cooling to 30° C. under N2 purge
Procedure: FIG. 2D depicts a variable temperature XRPD of Form D of compound 1. The variable temperature experiment was conducted to further investigate the weight loss observed in the TGA curve.

[3] = Slurry experiments in SGF; conditions: 37° C., 500 rpm
Procedure: About 200 mg of sodium chloride and about 100 mg Triton X-100 was weighted into a 100-mL volumetric flask. About 100 mL of purified water was added to the flask and the solution was sonicated until all solids were completely dissolved. 1 M HCl was added to adjust the pH to 1.8 and the solution was mixed well and the pH was checked with a pH meter.
Competitive slurry experiments were performed for Forms A, H^A, H^B, C and D in SGF. About 10 mg of each form was added into separate HPLC vials followed by addition of 1.0 mL SGF in order to form slurries. The slurries were heated to 37° C. and stirred at 500 rpm. After 2 h or 24 h, the samples were centrifuged and the solids were collected for XRPD testing.

- form change in variable temperature XRPD [2]: no form change
- XRPD at 2 h ([3]; 2 h): transformed to Form C
- XRPD at 24 h ([3]; 24 h): a mixture of Form C and an HCl salt form
SMILES: Cc1ccc(-c2noc([C@H]3C[C@@H]3F)n2)cc1NC(=O)c1cnc2ccccn12 [Form D, N-(5-(5-((1R,2S)-2-fluorocyclopropyl)-1,2,4-oxadiazol-3-yl)-2-methylphenyl)imidazo[1,2-a]pyridine-3-carboxamide]
- relative thermodynamic stability [1]: thermodynamically more stable than Form A
